Measured values as given in patent publication US20030050242A1, “Protein polymerization inhibitors and methods of use” (priority 1999, published 2003).
Where two headings read alike, the source gives them in different places. Marks after values point to notes of the source that are not given here. Ends that are not written are not given here. Peptide text beside a SMILES is read from it.

Assays:
HIV-2 = experiment: viral infection assay in H9 cells, reverse transcriptase (RT) activity in supernatant; type: cell-based; conditions: for effect on HIV-2 infection, in words: summary of the experiments in H9 cells; for Day 7 RT HIV-2 / Day 10 RT HIV-2: H9 cells, 100 μM
Protocol: (§1) Next, the ability of peptide agents to inhibit viral infection was evaluated. Accordingly, the peptide agents listed in Table 1 were used in several viral (e.g., HIV-1, HIV-2, and SIV) infection assays. […] Once inhibitory tripeptides were identified, more specific assays were conducted to determine the effect of varying concentrations of the selected tripeptides and combination treatments (e.g., the use of more than one modified tripeptide in combination).
(§2) To monitor the replication of virus, reverse transcriptase (RT) activity in the supernatants was assayed using a commercially available Lenti-RT activity kit. (Cavidi Tech, Uppsala, Sweden). The amount of RT was determined with the aid of a regression line of standards. […] Syncytium formation was also monitored by microscopic examination.
(§3) (Cavidi Tech). The amount of RT was determined with the aid of a regression line of standards.

SIV = experiment: as above; type: cell-based; conditions: for effect on SIV infection, in words: summary of the experiments in H9 cells; for Day 7 RT SIV / Day 10 RT SIV: H9 cells, 100 μM
Protocol: as §1, §2, §3

HIV-1 [1] = conditions: summary of Experiments 1-6
Protocol: as §1

[2] = target: viral capsid protein (p24) of HIV-2 (HIV-2)
[3] = target: viral capsid protein (p24) of SIV (SIV)
HIV-1 [4] = conditions: H9 cells, 100 μM, pos/neg
Protocol: as §1, §2

HIV-1 [5] = conditions: H9 cells, 100 μM
Protocol: Next, the ability of peptide agents to inhibit viral infection was evaluated. Accordingly, the peptide agents listed in Table 1 were used in several viral (e.g., HIV-1, HIV-2, and SIV) infection assays. The efficiency of HIV-1, HIV-2, and SIV infection was monitored by reverse transcriptase activity, the concentration of p24 protein in the cell supernatent, and by microscopic evaluation of HIV-1 syncytia formation. In initial experiments, several modified tripeptides were screened for the ability to inhibit HIV-1, HIV-2, and SIV infection in H9 cells.
In Experiments 1 and 2, approximately 200,000H9 cells were infected with HIV-1, HIV-2 or SIV at 25 TCID50 to test the inhibitory effect of the following synthesized tripeptides LKA-NH2, ILK-NH2, GPQ-NH2, GHK-NH2, GKG-NH2, ACQ-NH2, CQG-NH2, ARV-NH2, KAR-NH2, HKA-NH2, GAT-NH2, KAL-NH2, and GPG-NH2. Accordingly, the H9 cells were resuspended with or without the different peptides (approximately 100 μM) in 1 ml of RPMI 1640 medium supplemented with 10% (v/v) heat-inactivated fetal bovine serum (FBS), penicillin (100 u/ml), and streptomycin (100 u/ml), all available through GIBCO, and Polybrene (2 μg/ml), available through Sigma. Thereafter, viruses were added at 25 TCID50 in a volume of 20-30%1. Cells were incubated with virus at 37° C. for 1 hr then pelleted at 170× g for 7 minutes. The cells were then washed three times in RPMI medium without peptides at room temperature and pelleted at 170× g for 7 minutes, as above. After the final wash, the cells were resuspended in RPMI culture medium in a 24-well plate (Costar corporation) and kept at 37° C. in 5% CO2 with humidity.
Culture supernatants were collected and analyzed when the medium was changed at 4, 7, 10, and 14 days post infection. To monitor the replication of virus, reverse transcriptase (RT) activity in the supernatants was assayed using a commercially available Lenti-RT activity kit. […] The amount of RT was determined with the aid of a regression line of standards. The results are presented as absorbance values (OD) and higher absorbance indicates a higher protein concentration and greater viral infection. Syncytium formation was also monitored by microscopic examination.
In Experiment 3, (Table 5), approximately 200,000H9 cells were infected with HIV-1, HIV-2 or SIV at 25 TCID50 to test the inhibitory effect of different concentrations of peptides GPG-NH2, GKG-NH2 and CQG-NH2 and combinations of these peptides (the indicated concentration corresponds to the concentration of each tripeptide). As above, H9 cells were resuspended with or without the different peptides at varying concentrations in 1 ml of RPMI 1640 medium supplemented with 10% (v/v) heat-inactivated fetal bovine serum (FBS), penicillin (100 u/ml), and streptomycin (lOOu/ml), and Polybrene (2 μg/ml). Thereafter, viruses were added at 25 TCID50 in a volume of 20-30 μ. Cells were incubated with the indicated virus at 37° C. for 1 hr then pelleted at 170× g for 7 minutes. The cells were then washed three times in RPMI medium without peptides at room temperature and pelleted at 170× g for 7 minutes, as above. After the final wash, the cells were resuspended in RPMI culture medium in a 24-well plate (Costar corporation) and kept at 37° C. in 5% CO2 with humidity.
Culture supernatants were collected when the medium was changed at 4, 7, and 11 days post infection. As above, the replication of each virus was monitored by detecting reverse transcriptase (RT) activity in the supernatants using the Lenti-RT activity kit.

[6] = Experiment 1, higher OD = greater infection

Row | Molecule | effect on HIV-2 infection, in words (HIV-2) | effect on SIV infection, in words (SIV) | effect on HIV-1 infection, in words (HIV-1 [1]) | reverse transcriptase (RT) activity in the supernatants, Day 10 RT (OD) [2] [OD] | reverse transcriptase (RT) activity in the supernatants, Day 10 RT (OD) [3] [OD] | HIV-1 Syncytia (HIV-1 [4]; Experiment 1) | HIV-1 Syncytia (HIV-1 [4]; Experiment 2) | Day 7 RT HIV-2 (HIV-2; Experiment 1) [OD] | Day 10 RT HIV-2 (HIV-2; Experiment 1) [OD] | Day 7 RT HIV-2 (HIV-2; Experiment 2) [OD] | Day 10 RT HIV-2 (HIV-2; Experiment 2) [OD] | Day 7 RT SIV (SIV; Experiment 1) [OD] | Day 10 RT SIV (SIV; Experiment 1) [OD] | Day 7 RT SIV (SIV; Experiment 2) [OD] | Day 10 RT SIV (SIV; Experiment 2) [OD] | Day 10 RT HIV-1 (HIV-1 [5]; Experiment 1) [OD] | Day 7 RT HIV-1 (HIV-1 [5]; [6]) | Day 7 RT HIV-1 (HIV-1 [5]; Experiment 2) | Day 10 RT HIV-1 (HIV-1 [5]; Experiment 2) [OD]
1 | NCCCC[C@H](NC(=O)CN)C(=O)NCC(N)=O [GKG-NH2, glycyl-lysyl-glycine amide] (H-Gly-Lys-Gly-NH2) | inhibit or prevent HIV-2 and SIV infection | inhibit or prevent HIV-2 and SIV infection | inhibited and/or prevented HIV-1 infection | – | – | – | – | – | – | – | – | – | – | – | – | – | – | – | –
2 | ACQ-NH2 (peptide) | – | – | – | 2.75 | 2.75 | – | – | – | – | – | – | – | – | – | – | – | – | – | –
3 | ARV-NH2 (peptide) | – | – | – | 3 | 1.17 | – | – | – | – | – | – | – | – | – | – | – | – | – | –
4 | Ala-Arg-Val (Ala-Arg-Val-NH2) [ARV-NH2] | – | – | failed to prevent infection | – | – | pos | pos | 3.380 | 3.003 | 2.237 | 2.628 | 0.210 | 1.172 | 0.212 | 3.004 | 1.528 | 0.156 OD | 0.618 OD | 2.829
5 | Ala-Cys-Gln (Ala-Cys-Gln-NH2) [ACQ-NH2] | – | – | did not prevent HIV infection | – | – | pos | pos | 3.418 | 2.753 | 1.661 | 2.505 | 1.241 | 2.746 | 0.612 | 2.606 | 0.904 | 0.117 OD | 0.606 OD | 2.831
6 | Cys-Gln-Gly-NH2 (peptide) | – | – | – | 0.296 | 0.11 | – | – | – | – | – | – | – | – | – | – | – | – | – | –
7 | Gly-Ala-Thr (Gly-Ala-Thr-NH2) [GAT-NH2] | – | – | failed to prevent infection and syncytia formation | – | – | pos | pos | 3.461 | 2.835 | 1.707 | 2.565 | 0.892 | 2.343 | 0.572 | 2.776 | 1.565 | 0.116 OD | 0.776 OD | 2.800
8 | Gly-His-Lys (Gly-His-Lys-NH2) [GHK-NH2] | – | – | failed to prevent infection and syncytia formation | – | – | pos | pos | 3.522 | 2.931 | 1.936 | 2.418 | 0.097 | 2.384 | 0.396 | 2.394 | 2.151 | 0.289 OD | 0.829 OD | 3.013
9 | Gly-Pro-Gln (Gly-Pro-Gln-NH2) [GPQ-NH2] | – | – | did not prevent HIV infection | – | – | pos | pos | 3.692 | 2.734 | 1.511 | 2.382 | 1.542 | 2.176 | 0.574 | 2.319 | 1.965 | 0.204 OD | 0.884 OD | 2.848
10 | His-Lys-Ala (His-Lys-Ala-NH2) [HKA-NH2] | – | – | did not prevent HIV infection | – | – | pos | pos | 3.408 | 2.669 | 1.678 | 2.560 | 0.416 | 2.520 | 0.455 | 2.623 | 2.546 | 0.312 OD | 1.081 OD | 2.794
11 | Iso-Leu-Lys (Ile-Leu-Lys-NH2) [ILK-NH2] | – | – | – | – | – | pos | pos | 3.467 | 2.791 | 1.692 | 2.557 | 3.180 | 2.255 | 0.515 | 2.632 | 2.033 | 0.365 OD | 0.581 OD | 2.950
12 | Leu-Lys-Ala (Leu-Lys-Ala-NH2) [LKA-NH2] | – | – | did not prevent HIV infection | – | – | pos | pos | 3.649 | 2.769 | 1.689 | 2.637 | 3.577 | 2.452 | 0.724 | 2.797 | 2.429 | 0.568* OD | 0.894* OD | 2.989
13 | Lys-Ala-Arg (Lys-Ala-Arg-NH2) [KAR-NH2] | – | – | – | – | – | pos | pos | 3.419 | 2.640 | 1.904 | 2.742 | 0.266 | 1.722 | 1.034 | 2.672 | 2.779 | 0.380 OD | 0.753 OD | 2.928
14 | Lys-Ala-Leu (Lys-Ala-Leu-NH2) [KAL-NH2] | – | – | failed to prevent infection | – | – | pos | pos | 3.372 | 2.749 | 1.757 | 2.383 | 1.091 | 2.524 | 0.511 | 2.663 | 1.995 | 0.246 OD | 0.999 OD | 2.791
15 | cystyl-glutaminyl-glycine amide [CQG-NH2] | inhibit or prevent HIV-2 and SIV infection | inhibit or prevent HIV-2 and SIV infection | inhibited and/or prevented HIV-1 infection | – | – | – | – | – | – | – | – | – | – | – | – | – | – | – | –
